For orientation: Ki means the dissociation constant of the complex between target and ligand, obtained from inhibition or displacement. The IC50 is the concentration at which inhibition is half-maximal. The inhibition is the drop in the measured response relative to a control, in per cent. As usually defined, the Emax is the maximal effect, on the per cent scale that the assay sets.

Assay [1] concerns the target T1, 5-hydroxytryptamine receptor 1A (Homo sapiens, UniProt P08908).
T1 sequence (P08908 whole entry): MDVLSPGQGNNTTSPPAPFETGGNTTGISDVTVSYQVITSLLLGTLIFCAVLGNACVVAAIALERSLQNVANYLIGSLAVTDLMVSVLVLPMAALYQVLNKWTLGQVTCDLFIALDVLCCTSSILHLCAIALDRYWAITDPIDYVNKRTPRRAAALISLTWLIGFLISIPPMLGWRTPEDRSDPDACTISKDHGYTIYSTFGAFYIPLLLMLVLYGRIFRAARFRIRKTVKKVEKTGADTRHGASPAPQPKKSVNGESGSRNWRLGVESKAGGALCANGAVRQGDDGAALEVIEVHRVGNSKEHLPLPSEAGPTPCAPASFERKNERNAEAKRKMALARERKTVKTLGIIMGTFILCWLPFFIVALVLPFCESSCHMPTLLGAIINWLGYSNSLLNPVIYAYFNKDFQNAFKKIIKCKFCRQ
In words: Displacement of [3H]8-OH-DPAT from human 5-hydroxytryptamine 1A receptor expressed in CHO cells. In kind it is cell-based.

In assay [2] the target is T2, Sodium-dependent serotonin transporter (Homo sapiens, UniProt P31645). In words: Inhibitory activity of compound against serotonin transport by RB5-5-HT transporter.
T2 sequence (P31645 whole entry): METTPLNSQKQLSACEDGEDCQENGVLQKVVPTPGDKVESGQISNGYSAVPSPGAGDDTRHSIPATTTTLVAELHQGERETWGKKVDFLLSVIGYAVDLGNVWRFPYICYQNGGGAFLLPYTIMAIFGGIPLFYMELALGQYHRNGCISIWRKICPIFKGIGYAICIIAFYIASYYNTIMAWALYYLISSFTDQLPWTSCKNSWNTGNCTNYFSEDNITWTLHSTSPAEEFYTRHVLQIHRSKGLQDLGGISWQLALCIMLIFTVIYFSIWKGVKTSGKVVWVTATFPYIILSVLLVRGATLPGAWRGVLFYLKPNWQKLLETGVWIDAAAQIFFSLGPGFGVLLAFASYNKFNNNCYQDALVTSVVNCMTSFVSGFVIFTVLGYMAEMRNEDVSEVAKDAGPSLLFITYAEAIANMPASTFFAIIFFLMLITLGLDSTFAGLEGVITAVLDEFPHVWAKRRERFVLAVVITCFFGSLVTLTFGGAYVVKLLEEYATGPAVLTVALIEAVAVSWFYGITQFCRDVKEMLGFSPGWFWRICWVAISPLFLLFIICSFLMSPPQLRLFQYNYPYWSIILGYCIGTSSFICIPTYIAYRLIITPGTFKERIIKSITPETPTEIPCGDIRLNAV
Assay [3] concerns the target T3, Adrenergic receptor alpha-1 (Rattus norvegicus, UniProt P15823+P23944+P43140).
T3 sequence (P15823 whole entry): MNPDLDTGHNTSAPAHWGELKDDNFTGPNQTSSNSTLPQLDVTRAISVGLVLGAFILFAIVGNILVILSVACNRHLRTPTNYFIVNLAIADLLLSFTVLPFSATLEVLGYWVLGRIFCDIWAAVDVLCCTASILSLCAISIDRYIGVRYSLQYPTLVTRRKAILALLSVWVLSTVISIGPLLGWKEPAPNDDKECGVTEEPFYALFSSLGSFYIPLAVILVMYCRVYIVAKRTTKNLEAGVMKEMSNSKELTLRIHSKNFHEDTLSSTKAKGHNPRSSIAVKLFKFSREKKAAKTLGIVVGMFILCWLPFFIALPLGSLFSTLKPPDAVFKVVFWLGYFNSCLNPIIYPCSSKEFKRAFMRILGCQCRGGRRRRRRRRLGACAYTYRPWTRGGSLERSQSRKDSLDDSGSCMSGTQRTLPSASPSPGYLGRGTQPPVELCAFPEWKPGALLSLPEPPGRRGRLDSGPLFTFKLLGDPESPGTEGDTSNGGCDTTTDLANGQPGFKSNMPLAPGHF
T3 sequence (P23944 whole entry): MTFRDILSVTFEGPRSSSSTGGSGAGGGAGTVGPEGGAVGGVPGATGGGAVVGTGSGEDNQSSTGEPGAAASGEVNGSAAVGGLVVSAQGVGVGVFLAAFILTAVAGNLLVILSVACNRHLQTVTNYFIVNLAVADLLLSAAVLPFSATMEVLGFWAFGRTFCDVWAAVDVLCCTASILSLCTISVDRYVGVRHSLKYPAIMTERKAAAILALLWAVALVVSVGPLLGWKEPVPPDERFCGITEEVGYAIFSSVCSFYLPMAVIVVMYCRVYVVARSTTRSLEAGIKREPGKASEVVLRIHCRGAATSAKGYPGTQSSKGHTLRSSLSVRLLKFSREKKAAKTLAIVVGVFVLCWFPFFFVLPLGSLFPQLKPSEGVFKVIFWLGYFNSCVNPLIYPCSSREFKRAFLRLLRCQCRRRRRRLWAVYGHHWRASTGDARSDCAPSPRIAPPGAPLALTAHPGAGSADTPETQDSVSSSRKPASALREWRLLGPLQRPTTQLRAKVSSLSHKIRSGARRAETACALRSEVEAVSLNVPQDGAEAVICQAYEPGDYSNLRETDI
T3 sequence (P43140 whole entry): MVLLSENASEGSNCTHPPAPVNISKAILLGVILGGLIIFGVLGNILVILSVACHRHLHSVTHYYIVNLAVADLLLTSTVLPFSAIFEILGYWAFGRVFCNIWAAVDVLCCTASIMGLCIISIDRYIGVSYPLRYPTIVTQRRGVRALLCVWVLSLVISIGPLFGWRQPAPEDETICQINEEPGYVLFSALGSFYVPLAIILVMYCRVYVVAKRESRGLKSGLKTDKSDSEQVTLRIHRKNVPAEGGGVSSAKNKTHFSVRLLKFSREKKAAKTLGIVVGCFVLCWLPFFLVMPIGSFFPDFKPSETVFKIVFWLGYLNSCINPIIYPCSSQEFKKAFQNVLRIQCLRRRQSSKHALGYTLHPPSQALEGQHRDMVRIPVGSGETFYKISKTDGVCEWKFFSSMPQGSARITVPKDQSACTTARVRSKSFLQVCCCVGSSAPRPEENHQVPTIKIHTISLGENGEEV
In words: Displacement of [3H]prazosin from alpha-1 adrenergic receptor. In kind it is protein assay. In general terms: In a radioligand displacement assay an active substance lowers the binding of a labelled ligand.

For assay [4], the target named is T2, Sodium-dependent serotonin transporter. In words: Inhibitory activity of compound against serotonin transport by HC5-5-HT transporter.
The target of assay [5] is T4, 5-hydroxytryptamine receptor 1A (Homo sapiens) (UniProt P08908).
T4 sequence (whole entry): T1 sequence (P08908 whole entry)
As to the kind of experiment: Inhibition of [3H]8-OH-DPAT binding to human 5-hydroxytryptamine 1A receptor at 1000 nM compound concentration.

Assay [6] concerns the target T1, 5-hydroxytryptamine receptor 1A. As to the kind of experiment: Agonistic activity of compound towards 5-hydroxytryptamine 1A receptor was evaluated by forskolin stimulated cAMP assay. In kind it is functional. A general note: Changes in cAMP serve as a functional read-out for many G protein-coupled receptors.
In assay [7] the target is T4, 5-hydroxytryptamine receptor 1A (Homo sapiens). In words: (§1) Agonistic activity of compound towards 5-hydroxytryptamine 1A receptor was evaluated by [35S]GTP-gamma-S, stimulated cAMP assay. The assay is classed as functional. (In general: GTPγS resists hydrolysis and so accumulates on activated G proteins.)
Assay [8] has as its target Sodium-dependent serotonin transporter (Rattus norvegicus) (UniProt P31652). As to the kind of experiment: Inhibition of serotonin transporter. More on the design: concentration or dose not given beside the values. The conditions noted are these: concentration not given here.
For assay [9], the target named is T1, 5-hydroxytryptamine receptor 1A. Described as §1. The assay is classed as functional.
In assay [10] the target is Adrenergic receptor alpha-1 (Homo sapiens) (UniProt P35348+P25100+P35368). As to the kind of experiment: Inhibition of [3H]prazosin binding to alpha-1 adrenergic receptor at 100 nM compound concentration. In kind it is protein assay.

A value given as a limit tells only on which side of the number the result lay.

Sequence of Sodium-dependent serotonin transporter (Rattus norvegicus) (P31652 whole entry): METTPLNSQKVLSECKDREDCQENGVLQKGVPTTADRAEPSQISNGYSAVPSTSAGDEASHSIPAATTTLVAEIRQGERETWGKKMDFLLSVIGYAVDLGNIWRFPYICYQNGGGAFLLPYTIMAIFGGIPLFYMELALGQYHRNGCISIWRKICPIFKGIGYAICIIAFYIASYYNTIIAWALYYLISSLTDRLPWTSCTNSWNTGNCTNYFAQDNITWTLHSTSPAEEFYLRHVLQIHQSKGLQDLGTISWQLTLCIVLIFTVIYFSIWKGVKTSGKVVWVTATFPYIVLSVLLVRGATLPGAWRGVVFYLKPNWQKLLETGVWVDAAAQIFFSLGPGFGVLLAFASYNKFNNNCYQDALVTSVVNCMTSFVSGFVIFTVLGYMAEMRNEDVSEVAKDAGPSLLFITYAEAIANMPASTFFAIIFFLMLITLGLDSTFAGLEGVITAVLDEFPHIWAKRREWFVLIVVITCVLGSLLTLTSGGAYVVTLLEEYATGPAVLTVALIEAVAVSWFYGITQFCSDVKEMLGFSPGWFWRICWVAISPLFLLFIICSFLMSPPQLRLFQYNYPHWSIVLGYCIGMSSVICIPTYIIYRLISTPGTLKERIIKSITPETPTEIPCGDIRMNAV

`COc1cccc2c1O[C@@H](CN1C3C=C(c4cccc5cccnc45)CC1CC3)CO2` (stereo partly drawn): the Ki in [1] is 307 nM; in assay [2], 33 nM; in assay [3] it was 46.2 nM. In [4], this molecule came in with an IC50 of 109 nM.

Regarding `COc1cccc2c1O[C@@H](CN1C3C=C(c4ccc5ccccc5c4)CC1CC3)CO2` (stereo partly drawn), the inhibition constant Ki was 1.4 nM in assay [2] and 229 nM in assay [3]. Half-maximal inhibition in assay [4] (IC50) required 767 nM. Also, in assay [5], the inhibition is 43%.

As to `COc1cccc2c1O[C@@H](CN1[C@@H]3CC[C@H]1C[C@](O)(c1csc4ccccc14)C3)CO2`, the Ki in assay [1] was determined as 1.6 nM; in assay [3], 106 nM. The results for the IC50 in assay [6] and in [9] were 130 nM and 36 nM, respectively. Also, in assay [7], the Emax was 0%. The Imax in [7] is 92%. In assay [8], this molecule gave an inhibition of 0%.

With `COc1cccc2c1O[C@@H](CN1[C@@H]3CC[C@H]1C[C@](O)(c1ccc4ccccc4c1)C3)CO2`, the Ki in assay [1] stood at 0.81 nM; in assay [3], 42 nM. Moreover, the IC50 in [6] came out at 21 nM; in [9] it was 9.85 nM. Moreover, the Imax in assay [7] amounted to 100%.

In assay [1], `COc1ccccc1[C@]1(O)C[C@H]2CC[C@@H](C1)N2C[C@H]1COc2cccc(OC)c2O1` returned a Ki of 39 nM. The molecule also came in with a maximal response (Emax) in assay [7] of 40%. Further, the inhibition in assay [8] is 12%.

On to `COc1cccc2c1O[C@@H](CN1C3C=C(n4ccc5cc(F)ccc54)CC1CC3)CO2` (stereo partly drawn), for which the Ki in assay [1] came out at 128 nM; in assay [2], 8.5 nM; in assay [3], 71 nM. 138 nM corresponded to half-maximal inhibition in assay [4] (IC50).

Take `COc1cccc2c1O[C@@H](CN1[C@@H]3CC[C@H]1C[C@](O)(c1cccc(C(F)(F)F)c1)C3)CO2`: the Ki in [1] was determined as 0.33 nM; in assay [3] it was 9.9 nM. In addition, the Emax in assay [7] was found to be 90%. In assay [8], this molecule had an inhibition of 9%.

Take `CCOc1cccc2c1O[C@@H](CN1[C@@H]3CC[C@H]1C[C@](O)(c1ccccc1)C3)CO2`: the values for the Ki in [1] and in [3] were 3.05 nM and 32.7 nM, respectively. In assay [8], the inhibition worked out at 0%.

Take `CCOc1cccc2c1O[C@@H](CN1[C@@H]3CC[C@H]1C[C@](O)(c1ccccn1)C3)CO2`: the Ki in [1] was determined as 61.6 nM; in assay [3], 147 nM. For the same molecule, in [8], the inhibition amounted to 6%.

`CCOc1cccc2c1O[C@@H](CN1[C@@H]3CC[C@H]1C[C@](O)(c1cccc(C(F)(F)F)c1)C3)CO2`: the results for the Ki in assay [1] and in assay [3] were 2.92 nM and 12.9 nM, respectively. In assay [8], this molecule displayed an inhibition of 0%.

Take `CCOc1cccc2c1O[C@@H](CN1[C@@H]3CC[C@H]1C[C@](O)(c1ccc4ccccc4c1)C3)CO2`: the figures for the Ki in [1] and in [3] were 5.87 nM and 103.5 nM, respectively. Besides, the inhibition in assay [8] turned out to be 0%.

As to `COc1cccc2c1O[C@@H](CN1C3C=C(c4ccc(Cl)c(Cl)c4)CC1CC3)CO2` (stereo partly drawn), the Ki in assay [2] is 4.69 nM; in assay [3], above 1000 nM. This molecule also showed an IC50 in [4] of 260 nM. For the same molecule, the inhibition in assay [5] amounted to 35%.

For `CCOc1cccc2c1O[C@@H](CN1[C@@H]3CC[C@H]1C[C@](O)(c1csc4ccccc14)C3)CO2`, the Ki stood at 16.7 nM in assay [1] and 123.5 nM in assay [3]. This molecule also registered an inhibition in assay [8] of 4%.

With `COc1cccc2c1O[C@@H](CN1[C@@H]3CC[C@H]1C[C@](O)(c1ccccc1)C3)CO2`, in [1], the affinity corresponds to a Ki of 1.53 nM. Further, the IC50 was determined as 21 nM in [6] and 25 nM in assay [9]. This molecule also gave an Imax in assay [7] of 100%. The inhibition in assay [8] is 0%.

Take `COc1cccc2c1O[C@@H](CN1C3C=C(c4cccc5ccccc45)CC1CC3)CO2` (stereo partly drawn): the Ki in assay [1] is 357 nM; in assay [2], 26 nM. In assay [4], the IC50 came out at 951 nM. In addition, the inhibition in [10] came out at 26%.

For the molecule `COc1cccc2c1O[C@@H](CN1[C@@H]3CC[C@H]1C[C@](O)(c1ccccn1)C3)CO2`, the inhibition constant Ki in [1] came out at 46 nM. Besides, the Imax in assay [7] came out at 100%. In assay [8], the inhibition stood at 0%. Also, in assay [9], the concentration for half-maximal inhibition (IC50) stood at 1480 nM.

Source of the values: ChEMBL document CHEMBL1147408, “Modulation of selective serotonin reuptake inhibitor and 5-HT1A antagonist activity in 8-aza-bicyclo[3.2.1]octane derivatives of 2,3-dihydro-1,4-benzodioxane” (Bioorg Med Chem Lett, 2004).
